Reference: patent US10450275B2, “Compounds and methods for treating cancer, neurological disorders, ethanol withdrawal, anxiety, depression, and neuropathic pain” (Board of Regents, The University of Texas System, priority 2013, dated 2019)
Values joined by “and” are separate entries in the source; they are usually repeats but may differ in a detail not shown here. Identical values can stand only once. Like-named read-outs stand apart in the source and are kept apart here.

Experiments:
[1] = biological target: serotonin 5A receptor (5HTR5A) (Homo sapiens, UniProt P47898); assay: serotonin 5A receptor (5HTR5A) inverse agonist activity; type: cell-based; details: 9.3 μM
[2] = biological target: T1, human M1 muscarinic receptor (Homo sapiens, UniProt P11229); assay: human M1 muscarinic receptor antagonist activity; type: cell-based; details: 3 μM
T1 sequence (P11229 1-460): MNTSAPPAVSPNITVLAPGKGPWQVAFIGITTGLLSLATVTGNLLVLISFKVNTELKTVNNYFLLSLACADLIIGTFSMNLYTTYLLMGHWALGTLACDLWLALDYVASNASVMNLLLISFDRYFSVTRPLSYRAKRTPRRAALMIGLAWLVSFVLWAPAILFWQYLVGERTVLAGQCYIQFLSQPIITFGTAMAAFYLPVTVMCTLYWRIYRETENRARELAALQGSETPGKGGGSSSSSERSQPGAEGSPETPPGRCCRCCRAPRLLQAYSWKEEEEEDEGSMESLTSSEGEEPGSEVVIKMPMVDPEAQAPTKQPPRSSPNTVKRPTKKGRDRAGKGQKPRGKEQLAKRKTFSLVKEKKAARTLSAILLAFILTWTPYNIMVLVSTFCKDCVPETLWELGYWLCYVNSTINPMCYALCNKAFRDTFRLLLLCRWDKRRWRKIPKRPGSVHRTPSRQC

fatty acid synthase = fatty acid synthase (Homo sapiens, UniProt P49327); assay: fatty acid synthase inhibition; type: biochemical; details: read-out: Potency, fatty acid synthase inhibitor
[3] = biological target: T2, striatal-enriched protein tyrosine phosphatase (STEP) (Homo sapiens, UniProt P54829); assay: striatal-enriched protein tyrosine phosphatase (STEP) inhibition; type: biochemical; details: read-out: Potency, striatal-enriched protein tyrosine phosphatase (STEP) inhibitor
T2 sequence (P54829 1-565): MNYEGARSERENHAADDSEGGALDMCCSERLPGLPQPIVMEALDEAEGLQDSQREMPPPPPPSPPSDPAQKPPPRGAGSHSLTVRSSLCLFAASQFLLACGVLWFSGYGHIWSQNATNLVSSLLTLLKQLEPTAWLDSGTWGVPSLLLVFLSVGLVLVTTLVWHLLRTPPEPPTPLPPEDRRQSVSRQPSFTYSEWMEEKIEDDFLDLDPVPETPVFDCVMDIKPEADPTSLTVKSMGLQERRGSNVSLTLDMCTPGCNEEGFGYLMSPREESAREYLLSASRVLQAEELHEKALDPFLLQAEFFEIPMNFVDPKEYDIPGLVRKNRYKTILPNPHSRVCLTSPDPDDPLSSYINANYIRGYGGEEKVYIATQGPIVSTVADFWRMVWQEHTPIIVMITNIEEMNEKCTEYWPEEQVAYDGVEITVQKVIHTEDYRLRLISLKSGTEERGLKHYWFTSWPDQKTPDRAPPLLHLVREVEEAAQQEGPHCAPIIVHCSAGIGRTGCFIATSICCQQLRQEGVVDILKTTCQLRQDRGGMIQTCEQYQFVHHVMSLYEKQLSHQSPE

[4] = Pharmacokinetic profile of JJS-1-166 in mice (plasma, LC-MS); type: in vivo, C57Bl/6j mice; details: for bioavailability: relative to the area under the curve for IV administration
Procedure: FIG. 1. Nine C57Bl/6j male mice (2-3 months old). Prior to PK evaluation, 3 animals were dosed with vehicle and were used to identify the standard curve using liquid chromatography-mass spectrometry (LC-MS) and as controls. Animals were randomized into 3 groups (n=3 per group). One group dosed Intravenously (IV), one group orally (PO), and one group subcutaneously (SC) with 10 mg/kg of the compound. […] (The first 4 collections are retro-orbital and the last one is terminal together with collection of the brain. Brain and blood will be flash frozen in liquid nitrogen and kept in −80° C. for later analysis. The concentration of compounds in the blood samples and brain tissues will be measured using LC-MS method.) We determined the blood brain barrier (BBB) permeability and pharmacokinetic (PK) profile of JJS-1-166 (phase I), and subsequently investigated the efficacy of JJS-1-166 in an Alzheimer's disease (AD) mouse model. LC-MS/MS Method Development for Compound JJS-1-166 [table] [table]

[5] = Blood brain barrier permeability / brain concentration and brain clearance of JJS-1-166 in mice; type: in vivo, C57Bl/6j mice; details: for brain exposure / concentration at 3 h: mouse; for concentration at 3 h: male, C57Bl/6j, brain, 10 mg/kg
Procedure: FIG. 1. Nine C57Bl/6j male mice (2-3 months old). Prior to PK evaluation, 3 animals were dosed with vehicle and were used to identify the standard curve using liquid chromatography-mass spectrometry (LC-MS) and as controls. Animals were randomized into 3 groups (n=3 per group). One group dosed Intravenously (IV), one group orally (PO), and one group subcutaneously (SC) with 10 mg/kg of the compound. From each animal blood will be collected 5 times: baseline (before the single dose); 5 minute; 30 minute; 1 hour; 3 hour after the single dose of the compound. (The first 4 collections are retro-orbital and the last one is terminal together with collection of the brain. Brain and blood will be flash frozen in liquid nitrogen and kept in −80° C. for later analysis. The concentration of compounds in the blood samples and brain tissues will be measured using LC-MS method.) FIG. 6. 3 day brain clearance study. A C57Bl/6j mouse was treated with 10 mg/kg JJS-1-166. After 3 days, the level of JJS-1-166 in the brain was assessed to ensure that all or a majority of the drug had been cleared. We determined the blood brain barrier (BBB) permeability and pharmacokinetic (PK) profile of JJS-1-166 (phase I), and subsequently investigated the efficacy of JJS-1-166 in an Alzheimer's disease (AD) mouse model. LC-MS/MS Method Development for Compound JJS-1-166 [table] [table]

[6] = as above; type: in vivo, C57Bl/6j mice; details: time point 24 h, individual animals
[7] = system: Y. pestis topoisomerase I; type: biochemical; details: 10 μM
[8] = biological target: T3, microphthalmia-associated transcription factor (MITF) (Homo sapiens, UniProt O75030); assay: microphthalmia-associated transcription factor (MITF) activation; type: cell-based; details: read-out: Potency (AC40), microphthalmia-associated transcription factor (MITF) activator
T3 sequence (O75030 1-526): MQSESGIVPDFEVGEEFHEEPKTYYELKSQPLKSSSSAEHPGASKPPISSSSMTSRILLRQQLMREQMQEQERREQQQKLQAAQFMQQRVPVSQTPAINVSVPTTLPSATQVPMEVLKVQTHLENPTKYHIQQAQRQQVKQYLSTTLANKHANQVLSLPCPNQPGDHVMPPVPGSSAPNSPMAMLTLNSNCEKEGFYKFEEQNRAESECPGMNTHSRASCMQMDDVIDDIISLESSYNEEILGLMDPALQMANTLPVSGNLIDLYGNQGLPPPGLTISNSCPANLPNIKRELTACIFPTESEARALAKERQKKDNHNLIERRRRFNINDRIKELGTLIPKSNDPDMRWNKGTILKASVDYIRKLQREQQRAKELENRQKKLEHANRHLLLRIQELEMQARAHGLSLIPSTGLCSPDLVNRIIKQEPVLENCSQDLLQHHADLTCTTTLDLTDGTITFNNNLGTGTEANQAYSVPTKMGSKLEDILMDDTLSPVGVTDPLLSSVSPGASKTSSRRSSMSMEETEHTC

[9] = biological target: mycobacterium tuberculosis bioA enzyme (Mycobacterium tuberculosis, UniProt P9WQ81); assay: mycobacterium tuberculosis bioA enzyme inhibition; type: biochemical; details: read-out: Potency, mycobacterium tuberculosis bioA enzyme inhibitor
[10] = time point 3 h, individual animals
[11] = time point 72 h, individual animals

fatty acid synthase, sequence (P49327 whole entry): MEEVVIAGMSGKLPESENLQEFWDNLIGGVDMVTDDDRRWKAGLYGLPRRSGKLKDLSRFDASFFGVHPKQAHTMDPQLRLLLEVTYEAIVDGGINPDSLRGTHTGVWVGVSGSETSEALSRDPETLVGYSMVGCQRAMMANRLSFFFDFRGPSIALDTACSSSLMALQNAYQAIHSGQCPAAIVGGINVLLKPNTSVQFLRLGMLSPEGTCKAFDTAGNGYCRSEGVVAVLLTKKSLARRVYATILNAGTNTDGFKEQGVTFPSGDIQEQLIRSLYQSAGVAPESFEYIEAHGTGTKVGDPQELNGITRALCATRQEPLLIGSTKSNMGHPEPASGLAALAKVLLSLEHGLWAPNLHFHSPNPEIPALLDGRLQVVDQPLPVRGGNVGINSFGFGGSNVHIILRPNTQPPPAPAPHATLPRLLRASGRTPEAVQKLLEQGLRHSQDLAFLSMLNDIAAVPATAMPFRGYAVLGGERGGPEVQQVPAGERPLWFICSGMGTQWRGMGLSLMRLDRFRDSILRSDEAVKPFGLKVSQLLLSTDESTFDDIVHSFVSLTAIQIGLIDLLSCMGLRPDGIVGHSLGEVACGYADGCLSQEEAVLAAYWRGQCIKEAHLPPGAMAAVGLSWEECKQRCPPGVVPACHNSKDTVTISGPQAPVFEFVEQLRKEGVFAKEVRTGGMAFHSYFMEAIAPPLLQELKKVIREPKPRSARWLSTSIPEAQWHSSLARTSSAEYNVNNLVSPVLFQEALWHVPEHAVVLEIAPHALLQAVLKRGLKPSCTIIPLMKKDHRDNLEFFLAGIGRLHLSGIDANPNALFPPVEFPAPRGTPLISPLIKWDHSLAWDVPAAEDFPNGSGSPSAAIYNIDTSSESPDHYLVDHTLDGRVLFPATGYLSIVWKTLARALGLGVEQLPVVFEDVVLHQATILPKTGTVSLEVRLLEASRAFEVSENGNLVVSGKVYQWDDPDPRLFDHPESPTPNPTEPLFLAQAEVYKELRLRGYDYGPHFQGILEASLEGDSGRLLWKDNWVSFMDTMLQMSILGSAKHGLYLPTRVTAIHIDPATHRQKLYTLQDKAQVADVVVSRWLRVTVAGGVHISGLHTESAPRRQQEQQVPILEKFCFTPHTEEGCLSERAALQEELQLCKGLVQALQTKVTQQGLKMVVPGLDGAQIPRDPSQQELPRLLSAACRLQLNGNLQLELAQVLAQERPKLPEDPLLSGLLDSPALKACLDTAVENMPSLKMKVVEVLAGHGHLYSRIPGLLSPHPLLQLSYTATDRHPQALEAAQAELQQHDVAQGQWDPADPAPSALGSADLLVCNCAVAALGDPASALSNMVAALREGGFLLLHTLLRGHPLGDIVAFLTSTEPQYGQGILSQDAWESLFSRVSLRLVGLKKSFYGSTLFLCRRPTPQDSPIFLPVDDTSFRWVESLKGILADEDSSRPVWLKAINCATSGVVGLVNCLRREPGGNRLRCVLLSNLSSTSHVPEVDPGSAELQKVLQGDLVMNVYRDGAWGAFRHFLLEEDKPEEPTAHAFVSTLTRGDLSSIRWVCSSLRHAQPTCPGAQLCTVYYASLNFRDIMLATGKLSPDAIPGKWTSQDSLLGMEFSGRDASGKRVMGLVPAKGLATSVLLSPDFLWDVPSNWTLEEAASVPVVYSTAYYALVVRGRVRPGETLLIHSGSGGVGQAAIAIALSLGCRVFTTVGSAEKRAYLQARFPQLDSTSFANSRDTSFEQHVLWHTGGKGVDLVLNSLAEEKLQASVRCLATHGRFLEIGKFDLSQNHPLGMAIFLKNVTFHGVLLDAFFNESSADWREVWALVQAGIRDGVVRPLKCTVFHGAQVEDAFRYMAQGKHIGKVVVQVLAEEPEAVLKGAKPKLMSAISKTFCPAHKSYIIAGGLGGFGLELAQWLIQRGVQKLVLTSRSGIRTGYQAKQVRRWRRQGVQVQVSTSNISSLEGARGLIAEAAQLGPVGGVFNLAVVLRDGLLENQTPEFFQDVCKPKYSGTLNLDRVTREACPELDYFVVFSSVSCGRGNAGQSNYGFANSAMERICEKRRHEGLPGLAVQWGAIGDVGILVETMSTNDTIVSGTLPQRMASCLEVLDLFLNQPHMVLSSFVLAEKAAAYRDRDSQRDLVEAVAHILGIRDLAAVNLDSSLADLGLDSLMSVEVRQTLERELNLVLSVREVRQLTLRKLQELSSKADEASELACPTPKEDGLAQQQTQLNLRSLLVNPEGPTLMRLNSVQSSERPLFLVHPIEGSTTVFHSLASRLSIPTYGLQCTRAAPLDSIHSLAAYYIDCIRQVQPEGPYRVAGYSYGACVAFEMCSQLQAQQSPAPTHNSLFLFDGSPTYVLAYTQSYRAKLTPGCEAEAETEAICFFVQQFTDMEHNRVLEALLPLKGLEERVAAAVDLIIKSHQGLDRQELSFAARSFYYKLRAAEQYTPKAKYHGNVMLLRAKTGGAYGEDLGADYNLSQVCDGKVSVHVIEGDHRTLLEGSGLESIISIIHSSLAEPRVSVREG
serotonin 5A receptor (5HTR5A), sequence (P47898 whole entry): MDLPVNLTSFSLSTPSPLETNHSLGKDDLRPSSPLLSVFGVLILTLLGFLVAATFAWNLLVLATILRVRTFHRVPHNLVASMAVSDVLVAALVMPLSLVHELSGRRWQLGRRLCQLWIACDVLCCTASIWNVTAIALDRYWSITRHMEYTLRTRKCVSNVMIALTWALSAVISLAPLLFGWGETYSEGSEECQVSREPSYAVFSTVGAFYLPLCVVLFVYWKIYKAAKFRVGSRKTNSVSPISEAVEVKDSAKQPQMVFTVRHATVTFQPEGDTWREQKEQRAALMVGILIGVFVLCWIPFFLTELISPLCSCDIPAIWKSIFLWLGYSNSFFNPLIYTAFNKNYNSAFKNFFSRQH
mycobacterium tuberculosis bioA enzyme, sequence (P9WQ81 whole entry): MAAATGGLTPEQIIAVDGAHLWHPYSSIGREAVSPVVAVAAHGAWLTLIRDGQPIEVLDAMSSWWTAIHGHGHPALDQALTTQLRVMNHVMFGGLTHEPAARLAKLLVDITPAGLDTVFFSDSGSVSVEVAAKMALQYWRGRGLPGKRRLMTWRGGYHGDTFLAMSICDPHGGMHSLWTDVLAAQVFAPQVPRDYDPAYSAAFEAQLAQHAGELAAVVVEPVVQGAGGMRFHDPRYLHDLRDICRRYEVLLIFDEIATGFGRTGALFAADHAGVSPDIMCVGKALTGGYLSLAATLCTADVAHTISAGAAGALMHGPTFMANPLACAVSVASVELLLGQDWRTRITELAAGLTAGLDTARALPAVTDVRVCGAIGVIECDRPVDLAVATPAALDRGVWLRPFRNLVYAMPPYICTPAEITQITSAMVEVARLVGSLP

Clc1cccc(CN2CC[C@@H]3C[C@H]2c2cc(N4CCCCC4)ccc23)c1
Potency, serotonin 5A receptor (5HTR5A) inverse agonist [1]: 27% (9.3 μM)

O=C(c1cc(Cl)cc(Cl)c1)N1CC[C@@H]2C[C@H]1c1cc(N3CCCCC3)ccc12
Potency, human M1 muscarinic receptor antagonist [2]: 69% (3 μM)

COc1ccc(S(=O)(=O)N2CC[C@@H]3C[C@H]2c2cc(N4CCOCC4)ccc23)cc1 (stereo in doubt) [30{2,2,30}, 4-(2-((4-Methoxyphenyl)sulfonyl)-2,3,4,5-tetrahydro-1H-1,5-methanobenzo[c]azepin-8-yl)morpholine]
melting point: 176 to 177 °C

COc1ccc(NC(=S)N2CCN(c3ccc4c(c3)[C@@H]3CCN(C(=O)OCc5ccccc5)[C@H]4C3)CC2)c(OC)c1
inhibition at 15 µM (fatty acid synthase): 57%

N#Cc1ccc(C(=O)N2CC[C@@H]3C[C@H]2c2cc(-c4ccccc4)ccc23)cc1
inhibition at 20 µM [3]: 69%

CN1CCN(c2ccc3c(c2)[C@H]2CC3CCN2C(=O)OCc2ccccc2)CC1 [JJS-1-166]
concentration at 24 h ([4]; C57Bl/6j, mouse, plasma, time point 24 h, individual animals, read-out: Drug concentration in the Plasma): 0.14 ng/g
plasma concentration (Cmax) ([4]; SC administration, 10 mg/kg, at 1 hour, mouse): greater than 300 ng/dL
time for which detectable plasma levels were maintained ([4]; after SC, OP, and IV administration, mouse): greater than 150 minutes
plasma concentration (Cmax) ([4]; intravenous (IV) administration, 10 mg/kg, at 5 minutes, mouse): greater than 1500 ng/dL
concentration at 3 h ([4]; male, C57Bl/6j, mouse, plasma, 10 mg/kg, time point 3 h, individual animals, read-out: Drug concentration in the Plasma): 156 ng/g
bioavailability ([4]; male, C57Bl/6j, plasma, oral, 10 mg/kg, mouse, read-out: OP bioavailability): 7%
bioavailability ([4]; male, C57Bl/6j, plasma, subcutaneous, 10 mg/kg, mouse, read-out: SC bioavailability): 45%
pharmacokinetic properties ([4]; mouse, overall statement): acceptable
plasma concentration (Cmax) ([4]; oral (PO) administration, 10 mg/kg, at 30 min, mouse): greater than 60 ng/dL
Drug concentration in the Plasma [4, 10]: 136.0 ng/g and 209.0 ng/g
Drug concentration in the Plasma ([4]; time point 24 h, individual animals): 0.163 ng/g and 0.0913 ng/g
Drug concentration in the Plasma [4, 11]: No Peak
brain exposure ([5]; SC administration, 3 hours): high level of brain exposure
concentration at 3 h ([5]; time point 3 h, individual animals, read-out: Drug concentration in the Brain): 1570 ng/g
concentration at 3 h ([5]; sc, 3 hours after subcutaneous (SC) administration, read-out: brain concentration): 15 ng/mL
brain exposure ([5]; overall statement): adequate brain exposure
Drug concentration in the Brain [5, 10]: 1100.0 ng/g and 1840.0 ng/g
Drug concentration in the Brain [5, 11]: No Peak
concentration at 24 h ([6]; C57Bl/6j, mouse, brain, 10 mg/kg, read-out: Drug concentration in the Brain): 1.76 ng/g
Drug concentration in the Brain [6]: 1.63 ng/g and 1.28 ng/g

FC(F)(F)c1ccc(-c2ccc3c(c2)[C@@H]2C[C@H]3CCN2Cc2ccccc2)cc1 (stereo in doubt) [21{2,7}, 2-Benzyl-8-(4-(trifluoromethyl)phenyl)-2,3,4,5-tetrahydro-1H-1,5-methanobenzo[c]azepine]
melting point: 101 to 103 °C

O=C(OCc1ccccc1)N1CC[C@@H]2C[C@H]1c1c(Cl)cccc12
Potency, Y. pestis topoisomerase I inhibitor [7]: 61% (10 μM)

CCCCNc1ccc2c(c1)[C@@H]1C[C@H]2CCN1C(=O)OCc1ccccc1
EC40 [8]: 3.3 µM

COc1ccc(-c2ccc3c(c2)[C@@H]2C[C@H]3CCN2)cc1
inhibition at 10 µM [9]: 91%
